Publication PMC10041534, “Development of Fluorescent 4-[4-(3H-Spiro[isobenzofuran-1,4′-piperidin]-1′-yl)butyl]indolyl Derivatives as High-Affinity Probes to Enable the Study of σ Receptors via Fluorescence-Based Techniques” (Journal of Medicinal Chemistry, 2023)

Key:
σ2 receptor [1] = target: T1, σ2 receptor (Homo sapiens, UniProt Q5BJF2); assay: Flow cytometry saturation binding assay in MCF7 cells; conditions: σ1 masked by (+)-pentazocine
Protocol: Similarly, 2 × 10^5 MCF7 cells/well were seeded in a 12-well plate and allowed to recover for 24 h at 37 °C.
At the end of the incubation periods, cells were washed twice with PBS, detached with 200 mL of Cell Dissociation Solution (Sigma Chemical Co.) for 10 min at 37 °C, centrifuged at 13000g for 5 min, and resuspended in 500 mL of PBS. The fluorescence was recorded using a Bio-Guava easyCyte 5 Flow Cytometry System (Millipore, Billerica, MA), with a 530 nm band-pass filter. For each analysis, 50000 events were collected and analyzed with the InCyte software (Millipore).

σ1 receptor [2] = target: T2, σ1 receptor (Homo sapiens, UniProt Q99720); assay: Flow cytometry studies in MCF7σ1 cells; format: cell-based
T2 construct: expressed in transfected cells
T2 sequence (Q99720 whole entry, species assumed): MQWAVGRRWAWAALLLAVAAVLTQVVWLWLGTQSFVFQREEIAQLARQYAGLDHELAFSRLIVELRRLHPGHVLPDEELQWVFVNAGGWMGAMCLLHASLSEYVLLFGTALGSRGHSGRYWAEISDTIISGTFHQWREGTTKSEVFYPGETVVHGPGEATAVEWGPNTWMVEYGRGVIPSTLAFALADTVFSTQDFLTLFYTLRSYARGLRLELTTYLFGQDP

[3] = Fluorescence spectroscopy and quantum yield measurements; format: physicochemical; conditions: CHCl3
MCF7 cells [4] = assay: Trypan blue assay; format: cell-based, human; conditions: conditions of confocal microscopy, data not shown
σ2 receptor [5] = target: T1, σ2 receptor; assay: Spinning disk confocal microscopy on living MCF7 cells; format: cell-based; parameters: This cell line was selected on the basis of its high σ2 receptor expression levels; endogenous in cells; host or cells: MCF7 (and MCF7KO, partial TMEM97 knockdown by shRNA); conditions: for subcellular localization in living MCF7 cells: 0.05 μM, 30 min; for mitochondrial localization upon co-treatment with nonfluorescent DTG: 20 μM DTG
Protocol: MCF7 cells (2.4 × 10^4 cells/well) were seeded on IBIDI slides (coated with polymers, Science Services) and incubated at 37 °C with 5% CO2 for 48 h. Afterward, ProlongLife (Invitrogen, catalog no. P36974) was added in a 1:100 dilution to the cells and incubated for 1 h. Subsequently, the medium was removed, and the cells were stained with 250 nM MitoTracker-Bodipy FL (Invitrogen, catalog no. P36974) in phenol red-free medium for 30 min at 37 °C with 5% CO2. […] In addition, Hoechst 33342 (0.05 μM) was added 15 min prior to measurement to counterstain for nuclei. Finally, z-stacks of the living cells were performed using an Olympus IXplore SpinSR spinning disk confocal microscope. In total, three pictures per spot were obtained. The Cy-5 intensities of the ligands based on the localization of the GFP- signal of the mitochondria were calculated by the commercially available software cellSens from Olympus. Statistical analysis was performed using GraphPad Prism (version 8).

σ2 receptor [6] = target: T3, σ2 receptor (Rattus norvegicus, UniProt Q5U3Y7); assay: σ2 receptor radioligand binding assay with [3H]DTG, rat liver membranes; conditions: for Ki: [3H]DTG with 1 μM (+)-pentazocine, rat liver membranes, mean of at least two experiments in duplicate, read-out: Ki ± SEM σ2
T3 construct: from tissue; host or cells: rat liver (Wistar Hannover rats, Envigo)
T3 sequence (Q5U3Y7 1-176): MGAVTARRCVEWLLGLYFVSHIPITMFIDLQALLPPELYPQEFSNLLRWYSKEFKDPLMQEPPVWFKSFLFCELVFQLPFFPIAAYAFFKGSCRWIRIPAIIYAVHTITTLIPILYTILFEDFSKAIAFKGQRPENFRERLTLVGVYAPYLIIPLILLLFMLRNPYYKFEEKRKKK
Protocol: (§1) All of the procedures for the binding assays were previously described. σ1 and σ2 receptor binding assays were carried out according to the literature.[25] […] Incubations were stopped by addition of 1 mL of ice-cold buffer [50 mM TRIS (pH 8.0)], and then the suspension was filtered through GF/B presoaked in 0.3% polyethylenimine (PEI) for at least 60 min prior to use. The filters were washed twice with 1 mL of ice-cold buffer. […] Incubations were stopped by addition of 1 mL of ice-cold buffer [50 mM TRIS (pH 8.0)], and then the suspension was filtered through GF/B presoaked in 0.5% polyethylenimine (PEI) for at least 60 min prior to use. The filters were washed twice with 1 mL of ice-cold buffer. […] Scatchard parameters (Kd and Bmax) and apparent inhibition constants (Ki) were determined by nonlinear curve fitting using GraphPad Prism (version 5.0).[64]

[7] = RP-HPLC degradation study in PBS buffer; format: physicochemical; conditions: 37 °C, RP-HPLC over 24 h
Protocol: page 12: Figure S10. RP-HPLC degradation study in buffer of compounds 19 (A) and 29 (B). Compounds were dissolved in a solution of PBS with 5% of DMSO. Then the solution was divided in 4 vials, one was used to study t0 and the other three were incubated at 37 °C for 2h, 6h and 24 h, respectively. […]

σ2 receptor [8] = target: T1, σ2 receptor; assay: Flow cytometry studies in MCF7 and MCF7KO cells; format: cell-based; parameters: This cell line was selected on the basis of its high σ2 receptor expression levels; endogenous in cells; host or cells: MCF7 (and MCF7KO, partial TMEM97 knockdown by shRNA); conditions: for accumulation (mean fluorescence intensity) in MCF7 and MCF7KO cells: 10 nM-10 μM, 45 min, σ1 masked with 10 μM (+)-pentazocine; for signal in MCF7KO cells compared with MCF7 cells: flow cytometry, σ2 receptor partially silenced
Protocol: Subsequently, the cells were harvested by trypsinization and resuspended in 250 μL of FACS-PBS. The fluorescence intensity was measured by flow cytometry using a BD LSRFortessaTM X-20 cell analyzer (Becton Dickinson, Palo Alto, CA). For this, in total 20000 cells per sample were evaluated. The results were analyzed and quantified using BD FACSDivaTM software.

σ2 receptor [9] = target: T1, σ2 receptor; assay: Confocal microscopy, co-localization with σ2 receptor (TMEM97 ab) in fixed MCF7 cells; format: cell-based; parameters: This cell line was selected on the basis of its high σ2 receptor expression levels; endogenous in cells; host or cells: MCF7 (and MCF7KO, partial TMEM97 knockdown by shRNA); conditions: 5 μM, 1 h
Protocol: Subsequently, the cells were treated with the indicated concentrations of 19 or 29 for 1 h at 37 °C. Then, the cells were washed once with PBS, harvested by trypsinization, and resuspended in 1 mL of PBS. Then, the cell preparation for confocal microscopy by using Cytospin was carried out as described by Koh et al.,[75] followed by cell fixation with 4% paraformaldehyde at room temperature for 30 min. For the staining of σ2 receptor expression, cells were permeabilized and blocked with 0.5% Triton X-100 and 1% BSA, respectively, in PBS for 30 min at room temperature followed by incubation of the primary TMEM97 antibody (diluted 1:200 in 1% BSA/0.3% Triton-PBS, Novusbio, catalog no. NBP1-30436) overnight at 4 °C in a wet chamber. The next day, the cells were washed three times with PBS and incubated with a 1:500 dilution of a secondary anti-rabbit AlexaFluor488-labeled antibody (Invitrogen, catalog no. A-11034) for 1 h at room temperature in a wet chamber. After being washed twice with PBS, the cells were incubated with a solution containing DAPI (2.5 μg/mL, D9542) for 15 min at room temperature, followed by three washes with PBS as well as ddH2O and embedding with Vectashield (Vectashield Antifade Mounting Media, Vector Laboratories, caalog no. H-1000-10). […]

σ1 receptor [10] = target: T4, σ1 receptor (Cavia porcellus, UniProt Q60492); assay: σ1 receptor radioligand binding assay with (+)-[3H]pentazocine, guinea pig brain membranes; conditions: mean of at least two experiments in duplicate, read-out: Ki ± SEM σ1
T4 construct: from tissue; host or cells: guinea pig brain without cerebellum (male Dunkin guinea pigs, Envigo)
T4 sequence (Q60492 whole entry): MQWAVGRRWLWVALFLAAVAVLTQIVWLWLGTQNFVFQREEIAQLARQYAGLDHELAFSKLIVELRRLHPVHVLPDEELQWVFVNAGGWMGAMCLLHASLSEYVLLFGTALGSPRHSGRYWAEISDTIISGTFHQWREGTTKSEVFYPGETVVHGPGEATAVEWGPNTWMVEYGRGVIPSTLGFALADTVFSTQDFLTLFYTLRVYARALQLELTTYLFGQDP
Protocol: as §1

MCF7 cells [11] = assay: Live cell imaging in MCF7 cells; format: cell-based, human; conditions: live cell videos
[12] = DTG (20 μM) as non-fluorescent σ2 reference ligand
[13] = compound 2 (10 μM) as non-fluorescent σ2 reference ligand

T1 sequence (Q5BJF2 whole entry): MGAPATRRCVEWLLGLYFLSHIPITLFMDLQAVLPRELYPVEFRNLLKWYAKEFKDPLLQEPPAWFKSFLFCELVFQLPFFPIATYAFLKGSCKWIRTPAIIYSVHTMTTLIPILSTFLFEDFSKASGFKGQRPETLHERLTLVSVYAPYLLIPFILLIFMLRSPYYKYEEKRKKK

Row | SMILES | Kd (σ2 receptor [1]; [12]) [nM] | Kd (σ2 receptor [1]; [13]) [nM] | uptake in MCF7σ1 cells upon administration of (+)-pentazocine (σ1 receptor [2]; σ2 masked with 2 (10 μM), (+)-pentazocine 10 μM) | fluorescent signal in MCF7σ1 cells (σ1 receptor [2]; σ2 receptor masked with 10 μM compound 2) | quantum yield [3] [%] | λem [3] [nm] | λex [3] [nm] | cytotoxicity (MCF7 cells [4]) | subcellular localization in living MCF7 cells (σ2 receptor [5]) | mitochondrial localization upon co-treatment with nonfluorescent DTG (σ2 receptor [5]) | Ki (σ2 receptor [6]) [nM] | stability [7] | accumulation (mean fluorescence intensity) in MCF7 and MCF7KO cells (σ2 receptor [8]) | signal in MCF7KO cells compared with MCF7 cells (σ2 receptor [8]) | subcellular localization versus σ2 receptor distribution (TMEM97ab) (σ2 receptor [9]) | Ki (σ1 receptor [10]) [nM] | entry into living MCF7 cells (MCF7 cells [11]) | σ2 selectivity over σ1 (σ2 receptor [6]; from Ki values at σ1 and σ2) [fold]
1 | C[N+]1=C(/C=C/C=C/C=C2\N(CCCCCC(=O)NCCCCCCn3cc(CCCCN4CCC5(CC4)OCc4ccccc45)c4ccccc43)c3ccccc3C2(C)C)C(C)(C)c2ccccc21.[I-] [Compound 19, 2-{(1E,3E)-5-[(E)-1-{6-[(6-{3-[4-(3H-Spiro[isobenzofuran-1,4′-piperidin]-1′-yl)butyl]-1H-indol-1-yl}hexyl)amino]-6-oxohexyl}-3,3-dimethylindolin-2-ylidene]penta-1,3-dien-1-yl}-1,3,3-trimethyl-3H-indol-1-ium] | 13.6 | 19.3 | abated | dose-dependent increase | 52.86 | 678 | 657 | neither 19 nor 29 was cytotoxic | mitochondrial localization | significantly reduced | 30.2 ± 3.5 | stability of the two compounds was demonstrated | dose-dependent manner | visibly weaker | overlapped with the σ2 receptor distribution | 51.3 ± 3.2 | rapid entry | 
2 | C[N+]1=C(/C=C/C=C/C=C2/N(CCCCCC(=O)Nc3ccc4ccn(CCCCN5CCC6(CC5)OCc5ccccc56)c4c3)c3ccccc3C2(C)C)C(C)(C)c2ccccc21.[I-] [Compound 29, 2-[(1E,3E)-5-{(Z)-1-[6-({1-[4-(3H-Spiro[isobenzofuran-1,4′-piperidin]-1′-yl)butyl]-1H-indol-6-yl}amino)-6-oxohexyl]-3,3-dimethylindolin-2-ylidene}penta-1,3-dien-1-yl]-1,3,3-trimethyl-3H-indol-1-ium] | 18.7 | 13.8 |  |  | 47.83 | 678 | 657 | neither 19 nor 29 was cytotoxic | mitochondrial localization | significantly reduced | 51.1 ± 5.1 | stability of the two compounds was demonstrated | dose-dependent manner | visibly weaker | overlapped with the σ2 receptor distribution | 448 ± 80 | rapid entry | ~10
